Data set [1] concerns RANKL (Receptor Activator of NK-κB Ligand) in human osteoblasts. The experiment in a line: sRANKL expression increased by AngII in human osteoblasts. The class given is cell-based. Particulars: two-day cultivation. On the procedure: Purpose: Using human osteoblasts, expression of RANKL (Receptor Activator of NK-κB Ligand) which increases with angiotensin 2 (AngII) was measured. Then, inhibitory effect of olmesartan doxomil was examined.
Methods: Human osteoblasts (Clonetics Corp., Palo Alto, Calif.) were cultured in DMEM medium under conditions of 10% FCS, 5% CO2 and 37° C. AngII (1 μM) (Sigma) was added to the culture. After two-day cultivation, sRANKL (soluble Receptor Activator of NK-κB Ligand) contained in the culture supernatant was examined by […] (Biomedica). Further, effect produced by simultaneous administration of olmesartan (1 μM) or angiotensin type II receptor antagonist PD (123319) (chemical name: (S)-1-(4-[dimethylamino]-3-methylphenyl)methyl-5-(diphenylacetyl)-4,5,6,7-tetrahydro-1H-imidazo[4,5-c]pyridine-6-carboxylate) (1 μM) (Sigma-aldrich) was also examined.

Data set [2] is described as follows: Bone density, bone length and weight in ovariectomized spontaneously hypertensive rats. The class given is in vivo, spontaneously hypertensive rats (SHR). The conditions noted are these: one month after ovariectomy, ovariectomy group 0.1438±0.003445, non-treatment 0.1685±0.002684. The procedure: (§1) Purpose: Using spontaneously hypertensive rats, increase in TRAP (tartarate-resistant acid phosphatase) activity in the thigh bone and decrease in the bone density after ovariectomy were measured. Then, inhibitory effects of olmesartan medoxomil against TRAP activity increase and bone density decrease were examined. TRAP is a marker enzyme for osteoclasts, and TRAP activity increases when osteoclasts are activated. When osteoclasts are activated, bone is resorbed and thus bone density is decreased.
(§2) Methods: The ovary was removed from 8-week-old female spontaneously hypertensive rats (SHR) (Charles River). After one month observation, the thigh bone was removed, followed by measurement of TRAP activity in the bone (Walter K., et al., Method of Enzymatic Analysis, Academic Press, New York & London: 1974; 856-870) and simultaneous measurement of bone density (Venken K., et al., Bone 2005; 36: 663-670). Further, from immediately after the ovariectomy, olmesartan was administered subcutaneously at two different concentrations of 0.5 mg/kg/day and 1 mg/kg/day using an osmotic pressure pump (Alzet model 2004; Alza Corp).
Although administration of olmesartan brought no changes in the length and weight of the bone, concentration dependent decrease was recognized in TRAP activity in the thigh bone (Ovariectomy+ARB0.5 group: 71.7±8.7 U/L; Ovariectomy+ARB 1 group: 66.1±3.6 U/L). […]

Data set [3] relates to osteoclasts (TRAP positive multinucleated cells) in domestic rabbit bone marrow culture system. The experiment in a line: Osteoclast formation induced by active vitamin D3 in domestic rabbit bone marrow culture (TRAP staining). The class given is cell-based, domestic rabbit (New Zealand White Rabbit). The procedure:
Purpose: Using a domestic rabbit bone marrow culture system, the number of osteoclasts which were differentiation-induced by active vitamin D3 was measured. Then, inhibitory effect of olmesartan medoxomil was examined.
Methods: A three-day-old domestic rabbit (New Zealand White Rabbit) was sacrificed, followed by removal of the thigh bone and the tibia. After collection of the bone marrow, the leukocyte (granulocyte-monocyte) fraction was isolated and cultured under conditions of α-MEM, 10% FBS, 5% CO2, 37° C. 24-well culture plates were used for the culture. The cell count was adjusted to 5×10^4 cells/well. Active vitamin D3 (10^−8M) was added to the culture system. On day 3, 7 and 10 of the culture, cells were fixed with 4% paraformaldehyde and stained with tartarate-resistant acid phosphatase (TRAP staining) under acidic conditions (pH 5.0). The number of multinucleated cells stained with red (osteoclasts) was measured. Similar measurement was performed with addition of olmesartan at concentrations of 10^−8, 10^−7 and 10^−6M. With respect to TRAP positive cells (generally, containing 1 to 100 nuclei in one cell), they were divided into three groups depending on the degree of fusion: small cells (containing 1 to 2 nuclei), medium cells (containing 3 to 9 nuclei) and large cells (containing 10 or more nuclei).

The nature of data set [4]: Blood pressure and heart rate in ovariectomized spontaneously hypertensive rats (Table A). The class given is in vivo, spontaneously hypertensive rats (SHR). Particulars: average value; for Blood Pressure (diastolic): ovariectomy group 94.6667; for Blood Pressure (average): ovariectomy group 107; for Blood Pressure (systolic): ovariectomy group 131.667. The procedure: as §2
Although administration of olmesartan brought no changes in the length and weight of the bone, concentration dependent decrease was recognized in TRAP activity in the thigh bone (Ovariectomy+ARB0.5 group: 71.7±8.7 U/L; Ovariectomy+ARB 1 group: 66.1±3.6 U/L). Concentration dependent decrease in blood pressure was also recognized as a result of administration of olmesartan (Table A).

The subject of data set [5] is TRAP (tartarate-resistant acid phosphatase) activity in the thigh bone. The experiment in a line: TRAP activity in the thigh bone of ovariectomized spontaneously hypertensive rats. The class given is in vivo, spontaneously hypertensive rats (SHR). The conditions noted are these: osmotic pump, one month after ovariectomy, ovariectomy group 76.9±9.9, non-treatment 59.6±1.0. The procedure:
as §1, §2

[6] abbreviates: AngII 1 μM plus test substance 1 μM added simultaneously, AngII group 1.045±0.129, control 0.133±0.0271.
Where [7] appears, read: Ovariectomy + 1 mg/kg/day (n = 3).

For `Cc1cc(Cn2cnc3c2C[C@@H](C(=O)O)N(C(=O)C(c2ccccc2)c2ccccc2)C3)ccc1N(C)C` [PD (123319), (S)-1-(4-[dimethylamino]-3-methylphenyl)methyl-5-(diphenylacetyl)-4,5,6,7-tetrahydro-1H-imidazo[4,5-c]pyridine-6-carboxylate], the “sRANKL in culture supernatant” value in data set [1] (setting [6]) was 0.747 ± 0.0855 pM.
On to `CCCc1nc(C(C)(C)O)c(C(=O)O)n1Cc1ccc(-c2ccccc2-c2nnn[nH]2)cc1` [olmesartan, 4-(1-hydroxy-1-methylethyl)-2-propyl-1-[4-[2-(tetrazole-5-yl)phenyl]phenyl]methylimidazole-5-carboxylic acid], for which the “bone density (dual-energy X-ray absorptiometry)” value in data set [2] (0.5 mg/kg/day subcutaneously) worked out at 0.1527±0.003454 g/cm^2; in data set [2] (1 mg/kg/day subcutaneously), 0.1539±0.004365 g/cm^2. Also, the “growth of coexisting mesenchymal cells” value in data set [3] (any of the groups (10^−8, 10^−7, 10^−6 M)) is given as “no remarkable change”. In addition, the “TRAP positive cells, average cell count, medium cells (containing 3 to 9 nuclei)” value in data set [3] (day 10, olmesartan 10^−6 M, active vitamin D3 10^−8M, control 68.6) is reported as 50.2. Also, the “TRAP positive cells, average cell count, large cells (containing 10 or more nuclei)” value in data set [3] (day 10, olmesartan 10^−6 M, active vitamin D3 10^−8M, control 80.6) amounted to 23.0. For the same molecule, in data set [3] (day 10, olmesartan 10^−6 M, active vitamin D3 10^−8M, control 101.6), the “TRAP positive cells, average cell count, small cells (containing 1 to 2 nuclei)” value was 192.8. Besides, in data set [3] (olmesartan 10^−6 M, day 3, compared to control group), the “fusion of mononuclear cells” value was “significantly reduced”. Besides, the “change in TRAP positive cell count compared to the control group” value in data set [3] (olmesartan 10^−6 M, day 10) was “a significant reduction”; in data set [3] (olmesartan 10^−7 M, day 10), “a reduction in TRAP positive cell count”; in data set [3] (olmesartan 10^−8 M) it was “no remarkable change”. Moreover, the “osteoclasts contributing to bone resorption (medium and large cells)” value in data set [3] (olmesartan addition groups, control group 149.2, p<0.05) stood at 73.2. For the same molecule, the “total number of TRAP positive, multinucleated cells” value in data set [3] (olmesartan addition groups, control group 250.8, no statistically significant difference) is on record as 265.0. Further, the “Blood Pressure (diastolic)” value turned out to be 68.3333 in data set [4] (Ovariectomy + 0.5 mg/kg/day) and 45.8 in data set [4] (setting [7]). Besides, the “Blood Pressure (average)” value in data set [4] (Ovariectomy + 0.5 mg/kg/day) is recorded as 81.3333; in data set [4] (setting [7]) it was 56.25. The “Blood Pressure (systolic)” value in data set [4] (Ovariectomy + 0.5 mg/kg/day) amounted to 107; in data set [4] (setting [7]), 70.8. Further, the “sRANKL in culture supernatant” value in data set [1] (setting [6]) came to 0.0442 ± 0.0328 pM. Besides, the “TRAP activity in the thigh bone” value in data set [5] (0.5 mg/kg/day subcutaneously) is listed as 71.7±8.7 U/L; in data set [5] (1 mg/kg/day subcutaneously), 66.1±3.6 U/L.
As to “AngII: angiotensin 2 (AngII) (Sigma), added at 1 μM to human osteoblast culture; increases RANKL expression (DRVYIHPF; Angiotensin-2; UniProt P01019 25-32, looked up)”, the “sRANKL in culture supernatant” value in data set [1] (AngII 1 μM alone, non-addition control 0.133±0.0271) was 1.045 ± 0.129 pM.

Values taken from patent publication US20120046327A1, “METHOD FOR INHIBITING THE INDUCTION AND FORMATION OF OSTEOCLASTS” (OSAKA UNIVERSITY, priority 2005, published 2012).
